Among the test systems are NCI-H226; ACHN; SNB-19; SK-MEL-5; CAKI-1; HCT-15; BT-549; LOX IMVI; DU-145; EKVX; PC-3; MCF7; COLO 205; HOP-92; MOLT-4; UACC-62; SF-539; SNB-75; Hs-578T.
What all share (assay): growth of human tumour cells (NCI), 48 h

Counter-ions that a name gives are not always drawn.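 1) Cells in 96-well plates. 2) Compound, 48 h, 5 concentrations. 3) Linear interpolation between surrounding doses. 4) Unreached endpoint = highest concentration. Abbreviation: GI50, concentration required for 50% inhibition of growth.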 Active and inactive are the calls of the source. Rule as the data show it: active = GI50 up to about 1.1 µM and inactive = higher.

As for `COC(=O)/C=C1/CCC(C)(C(=O)NS(=O)(=O)c2ccc(C)cc2)C1(C)C` (centres undefined), the GI50 in the test on NCI-H226 was > 100 µM (inactive); in the test with ACHN, > 100 µM (inactive); with SNB-19, > 100 µM (inactive); in the test with SK-MEL-5, > 100 µM (inactive); in the test with CAKI-1, > 100 µM (inactive); with HCT-15 it was over 100 µM. In addition, the GI50 in the test with BT-549, in the test on LOX IMVI, in the test with DU-145, with EKVX, in the test on PC-3 and in the test with MCF7 was > 100 µM (inactive) throughout. Besides, the GI50 in the test on COLO 205, in the test with HOP-92, in the test with MOLT-4, in the test with UACC-62 and in the test on SF-539 was > 100 µM (inactive) each time.
`N#CC(/N=N/c1ccccc1C(=O)O)C(N)=O` (centres undefined): the GI50 is 82.8 µM (inactive) with NCI-H226; 68.7 µM (inactive) with ACHN; > 100 µM (inactive) with SNB-19; 60.3 µM (inactive) in the test on SNB-75; > 100 µM (inactive) in the test on SK-MEL-5; > 100 µM (inactive) in the test on CAKI-1. For the same molecule, the GI50 is 68.9 µM in the test on HCT-15; > 100 µM (inactive) in the test with BT-549; > 100 µM (inactive) with DU-145; > 100 µM (inactive) in the test on EKVX; > 100 µM (inactive) with PC-3; > 100 µM (inactive) with MOLT-4. Also, the GI50 with UACC-62 was > 100 µM (inactive).
With `NCCCNCCCCNCCCN` [SPERMINE TETRAHYDROCHLORIDE], the GI50 is > 100 µM (inactive) with NCI-H226; 4.12 µM (inactive) with ACHN; > 100 µM (inactive) with SNB-19; > 100 µM (inactive) in the test with SNB-75; > 57.9 µM (inactive) with SK-MEL-5; 5.97 µM (inactive) in the test with CAKI-1. Moreover, the GI50 is 2.67 µM in the test on HCT-15; 8.11 µM (inactive) in the test on LOX IMVI; 10.6 µM (inactive) in the test on DU-145; 17.8 µM (inactive) in the test on EKVX; > 100 µM (inactive) in the test with PC-3; 2.79 µM (inactive) in the test with MCF7. The GI50 is 4.67 µM (inactive) in the test on COLO 205; 11.9 µM (inactive) in the test on Hs-578T; 1.93 µM (inactive) in the test with HOP-92; 4.53 µM (inactive) in the test with MOLT-4; > 100 µM (inactive) in the test with UACC-62; 8.83 µM (inactive) with SF-539.
On to `CCC1C(=O)C(O)[C@H]2[C@@H]3C(O)CC4=CC(=O)CC[C@]4(C)[C@H]3CC[C@]12C` (some centres undefined), for which the GI50 in the test with ACHN was > 50 µM (inactive); with SNB-19, > 50 µM (inactive); with SNB-75 it was > 50 µM (inactive); with SK-MEL-5, > 50 µM (inactive); with CAKI-1 it was > 50 µM (inactive); with HCT-15 it was over 50 µM. In addition, the GI50 with LOX IMVI, in the test with DU-145, with EKVX, in the test on PC-3, with MCF7 and in the test with COLO 205 was > 50 µM (inactive) throughout. The GI50 in the test on Hs-578T, in the test on HOP-92, with MOLT-4, in the test on UACC-62 and with SF-539 was > 50 µM (inactive) throughout.
With `Oc1cccc(Nc2cc(O)nc(O)n2)c1`, the GI50 with NCI-H226, in the test with ACHN, with SNB-19, in the test on SNB-75, in the test with SK-MEL-5 and with CAKI-1 was > 100 µM (inactive) in each case. The GI50 in the test on HCT-15 was over 100 µM; in the test with BT-549, > 100 µM (inactive); with LOX IMVI, > 100 µM (inactive); in the test with EKVX, > 100 µM (inactive); in the test with PC-3 it was > 100 µM (inactive); with COLO 205, > 100 µM (inactive). For the same molecule, the GI50 in the test on Hs-578T was > 100 µM (inactive); in the test with HOP-92 it was 66.8 µM (inactive); in the test with MOLT-4, > 100 µM (inactive); in the test on UACC-62, > 100 µM (inactive); with SF-539, > 100 µM (inactive).
Regarding `C(=N\Cc1ccccc1)/c1ccccc1-c1ccccc1/C=N/Cc1ccccc1`, the GI50 was > 10 µM (inactive) in the test on NCI-H226; > 8.53 µM (inactive) with ACHN; > 10 µM (inactive) with SNB-19; 4.59 µM (inactive) in the test with SNB-75; > 7.03 µM (inactive) with SK-MEL-5; > 10 µM (inactive) with CAKI-1. Moreover, the GI50 in the test on HCT-15 was 5.47 µM; in the test on LOX IMVI it was 5.42 µM (inactive); in the test with DU-145, > 10 µM (inactive); in the test on EKVX, > 10 µM (inactive); in the test on PC-3 it was > 10 µM (inactive); in the test on MCF7 it was 3.82 µM (inactive). Moreover, the GI50 with COLO 205 is > 10 µM (inactive); in the test on HOP-92, > 10 µM (inactive); in the test with MOLT-4, 3.52 µM (inactive); in the test with UACC-62, > 7.23 µM (inactive); in the test with SF-539, > 10 µM (inactive).
As for `CCOC(=O)C12C3CCC1C2C(=O)C3` (centres undefined), the GI50 with NCI-H226, in the test on ACHN, in the test with SNB-19, in the test on SNB-75, with SK-MEL-5 and with CAKI-1 was > 100 µM (inactive) in each case. Also, the GI50 with HCT-15 is over 100 µM; with BT-549 it was > 100 µM (inactive); in the test on LOX IMVI it was > 100 µM (inactive); in the test with DU-145, > 100 µM (inactive); with EKVX, > 100 µM (inactive); in the test with PC-3, > 100 µM (inactive). Moreover, the GI50 in the test on MCF7, in the test on COLO 205, in the test on MOLT-4, in the test on UACC-62 and in the test on SF-539 was > 100 µM (inactive) each time.
`N#CCC(=O)c1cc(OCc2cc(OCc3ccc(Br)cc3)cc(OCc3ccc(Br)cc3)c2)cc(OCc2cc(OCc3ccc(Br)cc3)cc(OCc3ccc(Br)cc3)c2)c1`: the GI50 with NCI-H226, with ACHN, in the test with SNB-19, in the test with SNB-75, in the test on SK-MEL-5 and in the test on CAKI-1 was > 100 µM (inactive) in each case. For the same molecule, the GI50 in the test with HCT-15 was over 100 µM; with BT-549 it was > 100 µM (inactive); with DU-145, > 100 µM (inactive); with EKVX, > 100 µM (inactive); in the test with PC-3, > 100 µM (inactive); in the test with MCF7 it was > 100 µM (inactive). The GI50 with COLO 205, in the test on HOP-92 and in the test on UACC-62 was > 100 µM (inactive) in each case.
In the case of `CCOC(=O)Cc1csc(N/C=C2/C(=O)Oc3ccccc3C2=O)n1`, the GI50 was 22.6 µM (inactive) with NCI-H226; 12 µM (inactive) with ACHN; 24.2 µM (inactive) with SNB-19; 10.9 µM (inactive) in the test on SNB-75; 17.3 µM (inactive) with SK-MEL-5; 26.2 µM (inactive) with CAKI-1. Also, the GI50 in the test with HCT-15 is 24.2 µM; with LOX IMVI, 25.6 µM (inactive); with EKVX it was 35.8 µM (inactive); in the test on PC-3, 32.2 µM (inactive); with MCF7, 40.8 µM (inactive); in the test with COLO 205, 44.7 µM (inactive). Moreover, the GI50 in the test on Hs-578T is 22 µM (inactive); in the test on HOP-92, 11.7 µM (inactive); with MOLT-4 it was 10.2 µM (inactive); with UACC-62, 13.5 µM (inactive); in the test with SF-539, 16.9 µM (inactive).
For the molecule `O=C1Oc2ccccc2C(=O)/C1=C/N1C(=O)N/C(=C\c2cccc(O)c2)C1=O`, the GI50 in the test with NCI-H226 was > 100 µM (inactive); in the test on ACHN it was 20.7 µM (inactive); with SNB-19, 45.3 µM (inactive); in the test with SNB-75 it was 8.36 µM (inactive); in the test on SK-MEL-5 it was 70.8 µM (inactive); in the test on CAKI-1, 41 µM (inactive). The GI50 with HCT-15 was 61.9 µM; in the test with BT-549, 21.8 µM (inactive); with LOX IMVI, > 100 µM (inactive); in the test with DU-145 it was 72.9 µM (inactive); in the test on EKVX, > 100 µM (inactive); with PC-3, 54.3 µM (inactive). Besides, the GI50 in the test with MCF7 was > 100 µM (inactive); in the test on COLO 205 it was > 100 µM (inactive); in the test with HOP-92, > 100 µM (inactive); with MOLT-4 it was 86.5 µM (inactive); in the test with SF-539, 99.5 µM (inactive).
In the case of `CC(C)(C)c1ccc2c(c1)C#Cc1cc(C(C)(C)C)ccc1OCCCO2`, the GI50 in the test on NCI-H226 is > 100 µM (inactive); in the test with ACHN, > 100 µM (inactive); in the test with SNB-19 it was > 100 µM (inactive); in the test with SK-MEL-5, > 100 µM (inactive); in the test on CAKI-1, > 100 µM (inactive); in the test with HCT-15, over 100 µM. Besides, the GI50 in the test with BT-549, with LOX IMVI, with DU-145, with EKVX, in the test with PC-3 and with MCF7 was > 100 µM (inactive) each time. Further, the GI50 in the test with COLO 205, in the test on Hs-578T, with MOLT-4 and in the test with UACC-62 was > 100 µM (inactive) in each case.
For the molecule `Cc1cc(OP2(=O)NCc3ncccc3O2)ccc1Cl` (centres undefined), the GI50 with NCI-H226, with ACHN, with SNB-19, with SNB-75, in the test with SK-MEL-5 and in the test on CAKI-1 was > 100 µM (inactive) each time. Besides, the GI50 in the test with HCT-15 was over 100 µM; in the test on BT-549, > 100 µM (inactive); in the test on LOX IMVI it was > 100 µM (inactive); with DU-145, > 100 µM (inactive); in the test on EKVX, > 100 µM (inactive); in the test on PC-3 it was > 100 µM (inactive). The GI50 in the test with MCF7, in the test with COLO 205, in the test on HOP-92, in the test with MOLT-4, with UACC-62 and with SF-539 was > 100 µM (inactive) throughout.

The values are drawn from ChEMBL document CHEMBL1201862, “PubChem BioAssay data set” (2004).
